In ChEMBL document CHEMBL5236648, “Improved synthesis of deoxyalpinoid B and quantification of antileishmanial activity of deoxyalpinoid B and sulforaphane” (Bioorg Med Chem, 2023):
The source made the active and inactive calls. The calls are words filed in the database; no cut-off is given here.

Assays:
THP-1 [1] = assay: Induction of oxidative stress in human THP-1 cells assessed as increase in intracellular ROS level at 0.5 uM incubated for 1 hr by H2DCFA fluorescent probe based flow cytometry analysis; format: functional, cell-based
Leishmania donovani [2] = assay: Antileishmanial activity against Leishmania donovani MHOM/IN/Dd8 metacyclic promastigotes infected in PMA-differentiated human THP-1 cells assessed as reduction in number of amastigotes per 100 cell at 0.5 uM incubated for 48 hrs by DAPI staining based inverted microscopic analysis; format: functional, organism-based
Leishmania donovani [3] = assay: Antileishmanial activity against Leishmania donovani MHOM/IN/Dd8 metacyclic promastigotes infected in PMA-differentiated human THP-1 cells assessed as reduction in amastigotes formation at 10 uM incubated for 48 hrs by DAPI staining based inverted microscopic analysis; format: functional, organism-based
THP-1 [4] = assay: Induction of oxidative stress in human THP-1 cells assessed as increase in intracellular ROS level at 10 uM incubated for 1 hr by H2DCFA fluorescent probe based flow cytometry analysis; format: functional, cell-based
Leishmania donovani [5] = assay: Antileishmanial activity against Leishmania donovani MHOM/IN/Dd8 promastigotes infected in PMA-differentiated human THP-1 cells assessed as increase in heat shock protein A6 expression at 10 uM incubated for 18 hrs by RNA-seq analysis; format: functional, organism-based
Leishmania donovani [6] = assay: Antileishmanial activity against Leishmania donovani MHOM/IN/Dd8 promastigotes assessed as promastigotes viability at 50 uM incubated for 48 hrs by MTT assay relative to control; format: functional
Leishmania donovani [7] = assay: Induction of oxidative stress in Leishmania donovani MHOM/IN/Dd8 promastigotes assessed as increase in mitochondrial superoxide level at 10 to 50 uM incubated for 24 hrs by Mito sox based flow cytometry analysis; format: functional, organism-based; conditions: dose 10-50 µM
Leishmania donovani [8] = assay: Induction of oxidative stress in Leishmania donovani MHOM/IN/Dd8 promastigotes assessed as increase in intracellular ROS level at 10 to 50 uM incubated for 24 hrs by H2DCFA fluorescent probe based flow cytometry analysis; format: functional, organism-based; conditions: dose 10-50 µM
Leishmania infantum = assay: Antileishmanial activity against Leishmania infantum MHOM/TN/80/IPT-1 promastigotes assessed as inhibition of promastigotes growth incubated for 48 hrs by MTT assay; format: functional, organism-based; conditions: MHOM/TN/80/IPT-1, 48 h
Leishmania donovani [9] = assay: Antileishmanial activity against Leishmania donovani MHOM/IN/Dd8 promastigotes assessed as inhibition of promastigotes growth incubated for 48 hrs by MTT assay; format: functional, organism-based; conditions: MHOM/IN/Dd8, 48 h
THP-1 [10] = assay: Cytotoxicity against human THP-1 cells assessed as reduction in cell viability at 50 to 100 uM incubated for 48 hrs by MTT assay; format: toxicity, cell-based; conditions: thp-1, 48 h, dose 50-100 µM
Leishmania donovani [11] = assay: Antileishmanial activity against Leishmania donovani MHOM/IN/Dd8 promastigotes infected in PMA-differentiated human THP-1 cells assessed as increase in Hes family transcription factor 7 gene expression at 10 uM incubated for 18 hrs by RNA-seq analysis; format: functional, organism-based
Leishmania donovani [12] = assay: Antileishmanial activity against Leishmania donovani MHOM/IN/Dd8 promastigotes infected in PMA-differentiated human THP-1 cells assessed as increase in heat shock protein A7 expression at 10 uM incubated for 18 hrs by RNA-seq analysis; format: functional, organism-based
[13] = Cytotoxicity against human THP-1 cells assessed as cell viability at 5 uM incubated for 48 hrs by MTT assay relative to control; format: toxicity, cell-based; conditions: read-out: Activity
Leishmania donovani [14] = assay: Antileishmanial activity against Leishmania donovani MHOM/IN/Dd8 promastigotes assessed as promastigotes viability at 10 uM incubated for 48 hrs by MTT assay relative to control; format: functional
[15] = Cytotoxicity against human THP-1 cells assessed as cell viability at 10 uM incubated for 48 hrs by MTT assay relative to control; format: toxicity, cell-based; conditions: read-out: Activity
Leishmania donovani [16] = assay: Antileishmanial activity against Leishmania donovani MHOM/IN/Dd8 promastigotes infected in PMA-differentiated human THP-1 cells assessed as activation of neuroactive ligand-receptor interactions at 10 uM incubated for 18 hrs by KEGG analysis; format: functional, organism-based
[17] = Cytotoxicity against human THP-1 cells assessed as cell viability at 50 to 100 uM incubated for 48 hrs by MTT assay relative to control

For C[C@@H]1[C@H](O)[C@@H](C)/C=C/C=C/C=C/C=C/C=C/C=C/C=C/[C@H](O[C@@H]2O[C@H](C)[C@@H](O)[C@H](N)[C@@H]2O)C[C@@H]2O[C@](O)(C[C@@H](O)C[C@@H](O)[C@H](O)CC[C@@H](O)C[C@@H](O)CC(=O)O[C@H]1C)C[C@H](O)[C@H]2C(=O)O, the Activity (THP-1 [1]) was “inactive” and the Activity (Leishmania donovani [2]) was “Active”.
With COc1cc(CC/C=C/C(=O)CCc2ccccc2)ccc1O the Activity (Leishmania donovani [3]) was “Active”, the Activity (THP-1 [4]) was “Active” and the Activity (Leishmania donovani [5]) was “Active”. The Activity (Leishmania donovani [6]) was less than 10%, the Activity (Leishmania donovani [7]) was “Active” and the Activity (Leishmania donovani [8]) was “Active”. The IC50 (Leishmania infantum) was 22 µM, the IC50 (Leishmania donovani [9]) was 21.4 µM and the Activity (THP-1 [10]) was “Toxic”. The Activity (Leishmania donovani [11]) was “Active”, the Activity (Leishmania donovani [12]) was “Active” and the viability at 48 h, 5 µM [13] was 79%. The Activity (Leishmania donovani [14]) was 43%, the viability at 48 h, 10 µM [15] was 76% and the Activity (Leishmania donovani [16]) was “Active”.
With C[S+]([O-])CCCCN=C=S (stereo unspecified) [SULFORAPHANE] the Activity (THP-1 [4]) was “Active”, the viability at 48 h, 100 µM [17] was less than 45% and the Activity (Leishmania donovani [6]) was less than 10%. It also gave an IC50 (Leishmania infantum) of 16.5 µM, an IC50 (Leishmania donovani [9]) of 23.3 µM and a viability at 48 h, 5 µM [13] of 84%. For the same compound, the Activity (Leishmania donovani [14]) was 57%, the viability at 48 h, 10 µM [15] was 76% and the Activity (Leishmania donovani [16]) was “Active”.
